In patent EP0032708A1, “Tryptophan derivative, process for preparing same and a pharmaceutical composition containing such derivative” (Tanabe Seiyaku Co., Ltd., priority 1980, dated 1981):

Columns and labels:
rat brain homogenate = assay: Preventive effect on lipid peroxide formation (thiobarbituric acid colorimetric method); type: biochemical; conditions: 10 % rat brain homogenate, pH 7.4, 30-minute incubation at 37°C
Description: (ii) Preventive effect on lipid peroxide formation: An ethanol solution containing 10^-3 or 10-^4 M of a test compound was added to a mixture of 2.4 ml of 0.067 M potassium phosphate buffer solution (pH 7.4) and 0.5 ml of 10 % rat brain homogenate to adjust the final volume of the mixture to 3 ml. After 30-minute incubation of the mixture at 37°C, one ml of 20 % trichloroacetic acid was added thereto, and lipid peroxide formation was determined by the thiobarbituric acid colorimetric method (J. Robak et al., Viochem. Pharmacol., Vol. 25, page 2233 (1976). Suppression (%) of lipid peroxide formation of the test compound was calculated according to the following formula: [formula] • Note: ^* : group containing the test compound ^** : group containing an equal volume of ethanol instead of the test compound solution ΔOD was calculated as [(optical density measured at 532 nm) - (optical density measured at 600 nm)]

male SD rats = assay: Hypolipidemic activity (test compound in diet of rats for one week; serum lipids and liver weight); type: in vivo; conditions: test compound 0.10 w/w % in diet for one week
Description: (i) Hypolipidemic activity:
A test compound (0.10 w/w %) was added to a commercial diet, and male SD rats (body weight: 120 - 140 g , a group of 6 rats) were maintained on the diet for one week. After the experimental period, blood was collected from the tail vein of the rats under ether anesthesia. Thereafter, the liver was excised and weighed. Serum cholesterol and serum triglyceride were measured according to the methods of Zak (Amer. J. Clin. Pathol., Vol. 24, page 1307 (1954)) and Van Handel Zilversmit (J. Lab. & Clin. Med., Vol. 50, page 152 (1957)), respectively. Then, the increase (%) in liver weight and the decrease (%) in serum cholesterol or triglyceride were calculated according to the following formulae: [formula] [formula]

Row | Increase (%) in liver weight (male SD rats) [%] | SMILES | Suppression (%) in lipid peroxide formation (rat brain homogenate; Dose 10^-3M, 1000 µM) [%] | Suppression (%) in lipid peroxide formation (rat brain homogenate; Dose 10^-4M, 100 µM) [%] | Decrease (%) in serum triglyceride (male SD rats) [%] | Decrease (%) in serume cholesterol (male SD rats) [%]
1 | 14 | CCOC(=O)C(C)(C)Oc1ccc(Cl)cc1 [Clofibrate, 2-(4-chlorophenoxy)-2-methylpropanoic acid ethyl ester, reference compound] | 24.3 | 0.5 | 34 | 26
2 | 5 | Cn1cc(C[C@H](NC(=O)SCc2ccccc2)C(=O)O)c2ccccc21 [N^1-methyl-Hα-benzylthiocarbonyl-L-tryptophan] | 65.2 | 9.0 | 30 | 15
3 | 0 | Cc1ccc(CSC(=O)N[C@@H](Cc2c[nH]c3ccccc23)C(=O)O)cc1 [Nα-(4-methylbenzylthiocarbonyl)-L-tryptophan] | 72.7 | 10.2 | 48 | 14
